Reference: PMC12508159 (NPJ Biofilms and Microbiomes, 2025)

Tests used:
[1] = target: T1, serine-rich adhesin for platelets (SraP), L-lectin module (SLL) (Staphylococcus aureus, UniProt Q8NUJ3); test: SPR; type: binding
[2] = target: T1, serine-rich adhesin for platelets (SraP), L-lectin module (SLL); test: SPR; type: binding; remark: listed apart in the source

T1 sequence (Q8NUJ3 245-480): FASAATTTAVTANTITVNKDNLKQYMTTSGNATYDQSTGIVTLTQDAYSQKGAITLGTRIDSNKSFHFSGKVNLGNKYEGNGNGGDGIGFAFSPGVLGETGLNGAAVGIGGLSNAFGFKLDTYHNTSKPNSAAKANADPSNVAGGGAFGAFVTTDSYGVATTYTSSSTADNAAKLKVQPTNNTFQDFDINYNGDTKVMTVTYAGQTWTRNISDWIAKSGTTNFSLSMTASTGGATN

| Structure (SMILES) | SPR (Biacore T200), dose-dependent [1] | Kd [2] |
| --- | --- | --- |
| C[C@@H]1O[C@@H](O[C@H]2[C@H](Oc3cc(O)c4c(c3)O[C@H](c3ccc(O)c(O)c3)CC4=O)O[C@H](CO)[C@@H](O)[C@@H]2O)[C@H](O)[C@H](O)[C@H]1O [neoeriocitrin] | EGCG, neoeriocitrin, and isoviolanthin, were verified to possess strong binding signals in a dose-dependent manner | – |
| COc1cc(-c2oc3cc(O)cc(O)c3c(=O)c2O[C@@H]2O[C@H](CO[C@@H]3O[C@@H](C)[C@H](O)[C@@H](O)[C@H]3O)[C@@H](O)[C@H](O)[C@H]2O)ccc1O [isorhamnetin-3-O-β-rutinoside] | isorhamnetin-3-O-β-rutinoside, EGCG, neoeriocitrin, and isoviolanthin, were verified to possess strong binding signals in a dose-dependent manner | – |
| O=C1O[C@H]2[C@@H]3OC(=O)c4cc(O)c(O)c(O)c4-c4c(O)c(O)c5oc(=O)c6c(c(O)c(O)c7oc(=O)c4c5c76)-c4c(cc(O)c(O)c4O)C(=O)OC[C@H]3OC(O)[C@@H]2OC(=O)c2cc(O)c(O)c(O)c2-c2c1cc(O)c(O)c2O (mixture of isomers) [PA, punicalagin] | – | 0.566 µM |
